From ChEMBL document CHEMBL5233261, “Recent accomplishments on the synthetic/biological facets of pharmacologically active 1H-1,2,3-triazoles” (Eur J Med Chem, 2021)
≈ marks a conversion by molar mass, not a printed value.

Key:
DU-145 = test: Anticancer activity against human DU-145 cells assessed as cell growth inhibition by MTT assay; assay type: functional, cell-based
[1] = system: Mycobacterium tuberculosis; test: Antibacterial activity against Mycobacterium tuberculosis H37Rv ATCC 27294 strain assessed as bacterial growth inhibition by MABA Assay; assay type: functional
Plasmodium falciparum [2] = test: Antimalarial activity against Plasmodium falciparum 3D7 strain by MSF assay; assay type: functional, organism-based
MCF7 [3] = test: Potency index, ratio of Tamoxifen IC50 to test compound IC50 for cytotoxicity against human MCF7 cells by MTT assay; assay type: functional
Escherichia coli [4] = test: Antibacterial activity against Escherichia coli ATCC 853 strain assessed as bacterial growth inhibition; assay type: functional
Proteus vulgaris = test: Antibacterial activity against Proteus vulgaris ATCC 7829 strain assessed as bacterial growth inhibition; assay type: functional
Aspergillus fumigatus = test: Antifungal activity against Aspergillus fumigatus ATCC 13073 strain assessed as […] growth inhibition; assay type: functional
Candida albicans [5] = test: Antifungal activity against Candida albicans NRRL Y-477 strain assessed as […] growth inhibition; assay type: functional
Bacillus cereus = test: Antibacterial activity against Bacillus cereus ATCC 11778 strain assessed as bacterial growth inhibition; assay type: functional
Staphylococcus aureus [6] = test: Antibacterial activity against Staphylococcus aureus ATCC 6538P strain assessed as bacterial growth inhibition; assay type: functional
[7] = biological target: Enoyl-[acyl-carrier-protein] reductase [NADH] (Mycobacterium tuberculosis) (UniProt P9WGR1); test: Inhibition of Mycobacterium tuberculosis InhA at 50 microM relative to control
Sequence of Enoyl-[acyl-carrier-protein] reductase [NADH] (Mycobacterium tuberculosis) (P9WGR1 whole entry): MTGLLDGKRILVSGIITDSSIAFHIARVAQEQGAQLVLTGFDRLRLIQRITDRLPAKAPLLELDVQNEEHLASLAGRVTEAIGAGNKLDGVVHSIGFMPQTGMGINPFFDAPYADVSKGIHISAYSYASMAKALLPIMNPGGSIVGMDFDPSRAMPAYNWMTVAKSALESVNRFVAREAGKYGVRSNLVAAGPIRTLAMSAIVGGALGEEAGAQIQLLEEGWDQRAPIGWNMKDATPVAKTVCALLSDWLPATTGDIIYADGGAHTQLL

MCF7 [8] = test: Anticancer activity against human MCF7 cells assessed as cell growth inhibition incubated for 24 hrs by ELISA assay; assay type: functional, cell-based; conditions: MCF7, 24 h
Pseudomonas aeruginosa [9] = test: Antibacterial activity against Pseudomonas aeruginosa assessed as bacterial growth inhibition; assay type: functional
Escherichia coli [10] = test: Antibacterial activity against Escherichia coli assessed as bacterial growth inhibition; assay type: functional
HeLa = test: Anticancer activity against human HeLa cells assessed as cell growth inhibition incubated for 48 hrs by MTT assay; assay type: functional, cell-based
Escherichia coli [11] = test: Antibacterial activity against Escherichia coli ATCC 11229 assessed as bacterial growth inhibition by agar well diffusion assay; assay type: functional
Staphylococcus aureus [12] = test: Antibacterial activity against Staphylococcus aureus ATCC 6538 assessed as bacterial growth inhibition by agar well diffusion assay; assay type: functional
Listeria = test: Antibacterial activity against Listeria assessed as bacterial growth inhibition by agar well diffusion assay; assay type: functional
MCF7 [13] = test: Anticancer activity against human MCF7 cells assessed as cell growth inhibition incubated for 24 hrs by MTT assay; assay type: functional, cell-based; conditions: MCF7, 24 h
Staphylococcus aureus [14] = test: Antibacterial activity against Staphylococcus aureus assessed as bacterial growth inhibition incubated for 24 hrs by agar well diffusion assay; assay type: functional
Bacillus subtilis [15] = test: Antibacterial activity against Bacillus subtilis assessed as bacterial growth inhibition incubated for 24 hrs by agar well diffusion assay; assay type: functional
[16] = system: Mycobacterium tuberculosis; test: Antibacterial activity against Mycobacterium tuberculosis H37Rv strain assessed as bacterial growth inhibition incubated for 7 days by Resazurin Microtiter Assay; assay type: functional; conditions: 168 h, time 7 day
Escherichia coli [17] = test: Antibacterial activity against Escherichia coli assessed as bacterial growth inhibition incubated for 24 hrs by agar well diffusion assay; assay type: functional
Pseudomonas aeruginosa [18] = test: Antibacterial activity against Pseudomonas aeruginosa ATCC 27853 strain assessed as bacterial growth inhibition incubated for 24 hrs; assay type: functional
[19] = system: Staphylococcus epidermidis; test: Antibacterial activity against Staphylococcus epidermidis assessed as bacterial growth inhibition; assay type: functional
Aspergillus niger = test: Antifungal activity against Aspergillus niger assessed as […] growth inhibition; assay type: functional
Candida albicans [20] = test: Antifungal activity against Candida albicans assessed as […] growth inhibition; assay type: functional
Bacillus subtilis [21] = test: Antibacterial activity against Bacillus subtilis assessed as bacterial growth inhibition; assay type: functional
MCF7 [22] = test: Anticancer activity against human MCF7 cells assessed as cell growth inhibition incubated for 48 hrs by MTT assay; assay type: functional, cell-based; conditions: MCF7, 48 h
MDA-MB-231 = test: Anticancer activity against human MDA-MB-231 cells assessed as cell growth inhibition incubated for 48 hrs by MTT assay; assay type: functional, cell-based; conditions: MDA-MB-231, 48 h
Plasmodium falciparum [23] = test: Antimalarial activity against Plasmodium falciparum 3D7 strain incubated for 40 hrs by Giemsa staining based microscopic analysis; assay type: functional, organism-based; conditions: 3D7, 40 h
Plasmodium falciparum [24] = test: Antimalarial activity against Plasmodium falciparum RKL-2 strain incubated for 40 hrs by Giemsa staining based microscopic analysis; assay type: functional, organism-based; conditions: RKL-2, 40 h
Staphylococcus aureus [25] = test: Antibacterial activity against Staphylococcus aureus ATCC 6535 strain assessed as bacterial growth inhibition incubated for 24 hrs; assay type: functional

COc1cc([C@H]2c3cc4c(cc3[C@H](OCc3cn([C@@H]5O[C@H](COC(C)=O)[C@@H](OC(C)=O)[C@H](OC(C)=O)[C@H]5OC(C)=O)nn3)[C@@H]3COC(=O)[C@@H]23)OCO4)cc(OC)c1OC
IC50 (DU-145): 1020 nM

COc1ccc2nc(Cl)c(C(=O)NCc3cn(Cc4ccccc4)nn3)cc2c1
MIC [1]: 1.6 µg/mL (≈ 3.92 µM)

O=C(CCl)NCCNc1ccnc2cc(Cl)ccc12
IC50 (Plasmodium falciparum [2]): 38.8 nM

O=C1C(=O)N(CCn2cc(COCCOc3ccc(/C(=C(/CCCl)c4ccccc4)c4ccccc4)cc3)nn2)c2c(Br)cc(Br)cc21
Ratio IC50 (MCF7 [3]): 30

COc1ccccc1-n1cc(COc2ccc(-c3nc(-c4ccccc4)c(-c4ccccc4)n3Cc3cn(-c4ccccc4OC)nn3)cc2)nn1
MIC (Escherichia coli [4]): 13.8 µM (≈ 9.46 µg/mL)
MIC (Proteus vulgaris): 13.8 µM (≈ 9.46 µg/mL)
MIC (Aspergillus fumigatus): 13.8 µM (≈ 9.46 µg/mL)
MIC (Candida albicans [5]): 13.8 µM (≈ 9.46 µg/mL)
MIC (Bacillus cereus): 13.8 µM (≈ 9.46 µg/mL)
MIC (Staphylococcus aureus [6]): 13.8 µM (≈ 9.46 µg/mL)

COc1cc(-n2cc(CS(=O)(=O)C3c4ccccc4-c4ccccc43)nn2)cc(OC)c1OC
inhibition [7]: 73%

COc1cc2ncnc(Nc3ccc(Cn4cc(-c5ccccc5)nn4)cc3)c2cc1OC
IC50 (MCF7 [8]): 20700 nM

COc1ccc2nc(Cl)c(C(=O)NCc3cn(C(=O)c4ccc(F)cc4)nn3)cc2c1
MIC (Pseudomonas aeruginosa [9]; Pseudomonas aeruginosa, read-out: MIC): 6.25 µg/mL (≈ 14.2 µM)
MIC (Escherichia coli [10]; Escherichia coli, read-out: MIC): 6.25 µg/mL (≈ 14.2 µM)

Cc1ccc(Cn2cc(CN3C(=O)C4(C(C#N)=C(N)Oc5cc6c(cc54)[nH]c4ccccc46)c4cc(F)ccc43)nn2)cc1 (stereo not drawn)
IC50 (HeLa): 3350 nM

CC(C)c1ccc(-c2cc(-c3ccc(Cl)cc3)nc(OCc3cn(CC(=O)O)nn3)c2C#N)cc1
MIC (Escherichia coli [11]): 9.6 µg/mL (≈ 19.7 µM)
MIC (Staphylococcus aureus [12]): 19.2 µg/mL (≈ 39.3 µM)
MIC (Listeria): 9.6 µg/mL (≈ 19.7 µM)

O=C1C(=O)N(CCCn2cc(COCCOc3ccc(/C(=C(/CCCl)c4ccccc4)c4ccccc4)cc3)nn2)c2c(Br)cc(Br)cc21
IC50 (MCF7 [13]): 16500 nM

Cc1cc(=O)oc2cc(OCc3cn(CCCCCCCCn4cc(COc5cc6oc(=O)cc(C)c6cc5Cl)nn4)nn3)c(Cl)cc12
inhibition zone (IZ) (Staphylococcus aureus [14]): 16 mm
inhibition zone (IZ) (Bacillus subtilis [15]): 19 mm
MIC [16]: 1.56 µg/mL (≈ 2.25 µM)
inhibition zone (IZ) (Escherichia coli [17]): 14 mm

CCOP(=O)(CCCCn1cc(Cn2cnc3ccccc3c2=O)nn1)OCC
MIC (Pseudomonas aeruginosa [18]): 0.625 µg/mL (≈ 1.49 µM)

COc1ccc2nc(Cl)c(C(=O)NCc3cn(CC(=O)c4ccc(F)cc4)nn3)cc2c1
MIC [1]: 1.6 µg/mL (≈ 3.53 µM)

O=C(Cn1cc(-c2cccc(F)c2)nn1)Nc1ccc(F)cc1
MIC [19]: 0.0199 umol/cm3
MIC (Aspergillus niger): 0.0199 umol/cm3
MIC (Pseudomonas aeruginosa [9]): 0.0199 umol/cm3
MIC (Escherichia coli [10]): 0.0199 umol/cm3
MIC (Candida albicans [20]): 0.0199 umol/cm3
MIC (Bacillus subtilis [21]): 0.0199 umol/cm3

COc1ccc(Cn2cc(CNC(=O)c3cc4cc(OC)ccc4nc3Cl)nn2)cc1
MIC [1]: 1.6 µg/mL (≈ 3.65 µM)

N#CC1=C(N)Oc2cc3c(cc2C12C(=O)N(Cc1cn(Cc4ccc([N+](=O)[O-])cc4)nn1)c1ccccc12)[nH]c1ccccc13 (stereo not drawn)
IC50 (MCF7 [22]): 2130 nM

CCC(C)n1cc(CN2C(=O)C3(C(C#N)=C(N)Oc4cc5c(cc43)[nH]c3ccccc35)c3ccccc32)nn1 (stereo not drawn)
IC50 (MDA-MB-231): 2130 nM

C#CCCO[C@@H]1O[C@@H]2O[C@]3(C)CC[C@H]4[C@H](C)CC[C@@H]([C@H]1C)[C@@]24OO3
IC50 (Plasmodium falciparum [23]): 0.215 µg/mL (≈ 0.639 µM)
IC50 (Plasmodium falciparum [24]): 8 µg/mL (≈ 23.8 µM)

CCOP(=O)(CCCn1cc(Cn2cnc3ccccc3c2=O)nn1)OCC
MIC (Staphylococcus aureus [25]): 0.625 µg/mL (≈ 1.54 µM)

O=C1C(=O)N(CCCCn2cc(COCCOc3ccc(/C(=C(/CCCl)c4ccccc4)c4ccccc4)cc3)nn2)c2c(Br)cc(Br)cc21
IC50 (MCF7 [13]): 11000 nM
